# Measured values published in the Kinase Knowledgebase extract (Sharma et al. 2016).
# Target: EGFR (UniProt P00533)
# Conditions: not given
# Sequence of EGFR (P00533 whole entry, looked up): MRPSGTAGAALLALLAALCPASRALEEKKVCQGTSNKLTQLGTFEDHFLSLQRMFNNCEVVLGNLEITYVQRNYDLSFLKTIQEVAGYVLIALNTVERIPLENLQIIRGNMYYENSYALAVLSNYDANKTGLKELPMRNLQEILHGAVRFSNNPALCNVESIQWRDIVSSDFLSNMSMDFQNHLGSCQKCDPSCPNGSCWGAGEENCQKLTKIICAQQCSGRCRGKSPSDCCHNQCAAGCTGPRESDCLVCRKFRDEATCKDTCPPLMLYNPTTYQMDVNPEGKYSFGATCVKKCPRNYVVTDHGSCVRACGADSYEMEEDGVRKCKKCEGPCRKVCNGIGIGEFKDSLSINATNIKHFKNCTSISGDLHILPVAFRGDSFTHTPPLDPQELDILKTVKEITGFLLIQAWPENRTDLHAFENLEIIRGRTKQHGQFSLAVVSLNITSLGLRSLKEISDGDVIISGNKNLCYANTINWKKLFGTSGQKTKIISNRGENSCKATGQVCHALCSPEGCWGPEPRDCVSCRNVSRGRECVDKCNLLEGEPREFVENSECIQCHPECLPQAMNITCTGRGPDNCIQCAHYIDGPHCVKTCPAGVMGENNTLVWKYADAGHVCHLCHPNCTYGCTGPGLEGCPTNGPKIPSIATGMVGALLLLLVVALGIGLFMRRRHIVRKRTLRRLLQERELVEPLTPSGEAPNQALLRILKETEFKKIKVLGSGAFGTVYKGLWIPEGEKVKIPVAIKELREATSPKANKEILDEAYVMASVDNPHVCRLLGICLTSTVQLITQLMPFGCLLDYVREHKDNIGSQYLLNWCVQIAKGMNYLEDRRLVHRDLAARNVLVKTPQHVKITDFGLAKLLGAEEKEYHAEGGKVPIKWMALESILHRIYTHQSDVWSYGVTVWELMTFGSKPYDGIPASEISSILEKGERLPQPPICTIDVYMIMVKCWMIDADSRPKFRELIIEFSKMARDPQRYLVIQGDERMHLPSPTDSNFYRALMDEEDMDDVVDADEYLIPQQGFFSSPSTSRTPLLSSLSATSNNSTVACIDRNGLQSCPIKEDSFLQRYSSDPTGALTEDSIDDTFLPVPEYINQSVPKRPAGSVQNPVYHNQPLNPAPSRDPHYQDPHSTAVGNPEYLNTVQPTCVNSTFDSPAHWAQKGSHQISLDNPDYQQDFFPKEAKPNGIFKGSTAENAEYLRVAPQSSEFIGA
row,IC50,Compound
1,0.45 µM,Cc1c(C)n(C)c2ncnc(Nc3cccc(Cl)c3)c12

# Target: EGFR (mouse) (UniProt P00533)
# Conditions: balb/mk
row,IC50,Compound
1,> 50 µM,Clc1cccc(Nc2n[nH]c3ncnc(Oc4cccc(Cl)c4)c23)c1
2,> 50 µM,Nc1ncnc2c1c(-c1ccccc1)nn2-c1ccccc1
3,> 50 µM,O=[N+]([O-])c1cccc(-c2n[nH]c3ncnc(Nc4cccc(Cl)c4)c23)c1

# Target: EGFR (mouse) (UniProt P00533)
# Conditions: balb/c 3t3
row,Compound,IC50
1,c1ccc(Nc2ncnc3[nH]nc(Nc4ccccc4)c23)cc1,> 10 µM
2,Clc1cccc(Nc2n[nH]c3ncnc(Nc4cccc(Br)c4)c23)c1,> 10 µM
3,COc1ccc(CNc2n[nH]c3ncnc(Nc4cccc(Cl)c4)c23)cc1,> 10 µM
4,Nc1ccc(-c2n[nH]c3ncnc(Nc4cccc(Cl)c4)c23)cc1,> 10 µM
5,Oc1cccc(Nc2n[nH]c3ncnc(Nc4cccc(Cl)c4)c23)c1,> 10 µM
6,Nc1nc(N)c2c(Nc3cccc(Cl)c3)n[nH]c2n1,> 10 µM
7,Clc1cccc(CNc2n[nH]c3ncnc(Nc4cccc(Cl)c4)c23)c1,> 10 µM
8,Nc1cccc(-c2n[nH]c3ncnc(Nc4cccc(Cl)c4)c23)c1,> 10 µM
9,Oc1cccc(-c2n[nH]c3ncnc(Nc4cccc(Cl)c4)c23)c1,> 10 µM
10,Oc1ccc(-c2n[nH]c3ncnc(Nc4cccc(Cl)c4)c23)cc1,> 10 µM
11,Cc1cccc(Nc2ncnc3[nH]nc(Nc4cccc(Cl)c4)c23)c1,> 10 µM
12,COc1cccc(Nc2n[nH]c3ncnc(Nc4cccc(Cl)c4)c23)c1,> 10 µM
13,CC(C)(C)OC(=O)Nc1ccc(-c2n[nH]c3ncnc(Nc4cccc(Cl)c4)c23)cc1,> 10 µM
14,Clc1cccc(Nc2n[nH]c3ncnc(Nc4ccccc4)c23)c1,> 10 µM
15,Oc1ccc(Nc2n[nH]c3ncnc(Nc4cccc(Cl)c4)c23)cc1,> 10 µM

# Second part, the compound after the results:
row,IC50,Compound
1,> 10 µM,Clc1cccc(Nc2ncnc3[nH]nc(-c4ccccc4)c23)c1
2,> 10 µM,Clc1cccc(Nc2ncnc3[nH]nc(NCc4ccccc4)c23)c1
3,> 10 µM,Nc1ncnc2[nH]nc(Nc3cccc(Cl)c3)c12
4,> 10 µM,COc1ccc(-c2n[nH]c3ncnc(Nc4cccc(Cl)c4)c23)cc1
5,> 10 µM,Clc1cccc(Nc2n[nH]c3ncnc(NCc4ccccc4)c23)c1
6,> 10 µM,COc1cccc(CNc2n[nH]c3ncnc(Nc4cccc(Cl)c4)c23)c1
7,10 µM,Clc1cccc(Nc2n[nH]c3ncnc(Oc4cccc(Cl)c4)c23)c1
8,> 10 µM,Nc1ncnc2c1c(-c1ccccc1)nn2-c1ccccc1
9,> 10 µM,O=[N+]([O-])c1cccc(-c2n[nH]c3ncnc(Nc4cccc(Cl)c4)c23)c1
